Results from patent US20260200897A1, “4-((5-(3-(4-(PYRIDIN-2-YL)CYCLOPENTYL)-1H-PYRAZOL-3-YL)AMINO)-BENZENESULFONAMIDE DERIVATIVES AND SIMILAR COMPOUNDS AS CDK INHIBITORS FOR THE TREATMENT OF CANCER” (BeOne Medicines I GmbH, priority 2023, published 2026).

How the values were obtained:
CDK1/Cyclin B1 = CDK1/Cyclin B1 (Homo sapiens, UniProt P06493); test: CDK1/Cyclin B1 TR-FRET biochemical assay, 1 mM ATP; settings: 0.15 μM Rb (Ser780)-biotin substrate, 90 min reaction, Table 2
Method: (§1) Compounds disclosed herein were tested for inhibition of CDK2/Cyclin E1 or CDK1/Cyclin B kinase in an assay based on the time-resolved fluorescence-resonance energy transfer (TR-FRET) methodology. The assay was carried out in 384-well low volume black plates in a reaction mixture containing CDK2/Cyclin E1 or CDK1/Cyclin B1, 1 mM ATP for CDK2/Cyclin E1 and CDK1/Cyclin B1, 0.15 μM Rb (Ser780)-biotin substrate and 0-10 μM compound in buffer containing 50 mM HEPES pH7.0, 0.02% NaN3, 0.01% BSA, 0.1 mM Orthovanadate, 50 mM MgCl2, 1 mM DTT and 0.005% Tween-20. The kinase was incubated with compound for 60 minutes at room temperature and the reaction was initiated by the addition of ATP and Rb (Ser780)-biotin substrate. After reaction at room temperature for 90 minutes, an equal volume of stop/detection solution was added according to the manufacture's instruction (Cisbio Bioassays). The stop/detection solution contained Streptavidin-XL665 and Anti-pRb (Ser780) mAb-Eu Cryptate in Detection buffer (Cisbio Bioassays). Plates were incubated at room temperature for 60 minutes, and the TR-FRET signals (ex337 nm, em665 nm/620 nm) were recorded on a PHERAstar FSX plate reader (BMG Labtech). The inhibition percentage of CDK2/Cyclin E1 or CDK1/Cyclin B1 kinase activity in presence of increasing concentrations of compounds was calculated based on the ratio of fluorescence at 665 nm to that at 620 nm. The IC50 for each compound was derived from fitting the data to the four-parameter logistic equation by Dotmatics.

CDK2/Cyclin E1 = CDK2/Cyclin E1 (Homo sapiens, UniProt P24941); test: CDK2/Cyclin E1 TR-FRET biochemical assay, 1 mM ATP; settings: 0.15 μM Rb (Ser780)-biotin substrate, 90 min reaction, Table 2
Method: as §1

CDK1/Cyclin B1, sequence (P06493 whole entry): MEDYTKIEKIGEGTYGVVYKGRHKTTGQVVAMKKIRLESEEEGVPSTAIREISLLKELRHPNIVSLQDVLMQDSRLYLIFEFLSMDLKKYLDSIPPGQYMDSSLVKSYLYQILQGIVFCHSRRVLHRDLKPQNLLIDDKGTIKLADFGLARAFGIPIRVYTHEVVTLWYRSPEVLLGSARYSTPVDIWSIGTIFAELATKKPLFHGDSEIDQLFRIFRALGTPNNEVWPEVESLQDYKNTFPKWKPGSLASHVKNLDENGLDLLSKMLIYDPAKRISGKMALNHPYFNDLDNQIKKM
CDK1/Cyclin B1, sequence (P14635 whole entry partner): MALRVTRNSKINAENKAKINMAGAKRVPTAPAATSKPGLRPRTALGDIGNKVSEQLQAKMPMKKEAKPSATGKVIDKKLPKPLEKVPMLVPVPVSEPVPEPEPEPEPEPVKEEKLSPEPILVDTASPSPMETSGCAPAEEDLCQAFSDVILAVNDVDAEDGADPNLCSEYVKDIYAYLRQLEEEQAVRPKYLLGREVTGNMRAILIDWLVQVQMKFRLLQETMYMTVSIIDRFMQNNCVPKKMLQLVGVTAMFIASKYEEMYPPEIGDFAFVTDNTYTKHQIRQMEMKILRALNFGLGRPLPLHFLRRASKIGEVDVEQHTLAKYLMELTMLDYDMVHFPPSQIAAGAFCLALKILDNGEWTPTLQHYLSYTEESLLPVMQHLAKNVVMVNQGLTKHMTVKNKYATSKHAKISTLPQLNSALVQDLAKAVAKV

Row | SMILES | IC50 (CDK1/Cyclin B1) | IC50 (CDK2/Cyclin E1)
1 | CC(C)(C)c1cnc(C2CCC(c3cc(Nc4ccc(S(N)(=O)=O)cc4F)n[nH]3)C2)o1 (single isomer, unassigned) [Example 6d, 4-((5-(3-(5-(tert-butyl)oxazol-2-yl)cyclopentyl)-1H-pyrazol-3-yl)amino)-3-fluorobenzenesulfonamide] | > 10000 nM | 503 nM
2 | CC(C)c1ccnc(C2CCC(c3cc(Nc4ccc5c(c4F)CS(=O)(=O)C5)n[nH]3)C2)c1 (centres unmarked) [Example 178, 4-fluoro-5-((5-(3-(4-isopropylpyridin-2-yl)cyclopentyl)-1H-pyrazol-3-yl)amino)-1,3-dihydrobenzo[c]thiophene 2,2-dioxide] | 1520 nM | 7 nM
3 | CCOC(=O)c1nc(C2CCC(c3cc(Nc4ccc5c(c4F)CNS5(=O)=O)n[nH]3)C2)oc1C(C)(C)C (centres unmarked) [Example 114, ethyl 5-(tert-butyl)-2-(3-(3-((4-fluoro-1,1-dioxido-2,3-dihydrobenzo[d]isothiazol-5-yl)amino)-1H-pyrazol-5-yl)cyclopentyl)oxazole-4-carboxylate] | > 10000 nM | 429 nM
4 | CC(C)(C)c1cnc(C2CCC(c3cc(Nc4ccc5c(c4)CS(=O)(=O)N5)n[nH]3)C2)s1 (centres unmarked) [Example 137, 5-((5-(3-(5-(tert-butyl)thiazol-2-yl)cyclopentyl)-1H-pyrazol-3-yl)amino)-1,3-dihydrobenzo[c]isothiazole 2,2-dioxide] | > 10000 nM | 2030 nM
5 | CC(C)(C)c1cnc(C2CCC(c3cc(Nc4ccc5c(c4)CN=S5(C)=O)n[nH]3)C2)o1 (single isomer, unassigned) [Example 169c, 5-((5-(3-(5-(tert-butyl)oxazol-2-yl)cyclopentyl)-1H-pyrazol-3-yl)amino)-1-methyl-3H-1λ^4-benzo[d]isothiazole 1-oxide] | 6710 nM | 57 nM
6 | CC(C)(C)c1ccnc(C2CCC(c3cc(Nc4ccc5c(c4F)CNS5(=O)=O)[nH]n3)C2)c1 (centres unmarked) [Example 117, 5-((3-(3-(4-(tert-butyl)pyridin-2-yl)cyclopentyl)-1H-pyrazol-5-yl)amino)-4-fluoro-2,3-dihydrobenzo[d]isothiazole 1,1-dioxide] | 6770 nM | 34 nM
7 | CC(C)(C)c1nnc([C@@H]2CC[C@H](c3cc(Nc4ccc5c(c4F)CS(=O)(=O)N5)n[nH]3)C2)o1 (relative stereo) [Example 146, cis-5-((5-(3-(5-(tert-butyl)-1,3,4-oxadiazol-2-yl)cyclopentyl)-1H-pyrazol-3-yl)amino)-4-fluoro-1,3-dihydrobenzo[c]isothiazole 2,2-dioxide] | > 10000 nM | 74 nM
8 | CC(C)(C)c1ccnc(C2CCC(c3cc(Nc4cc5c(cc4F)S(=O)(=O)NC5)n[nH]3)C2)n1 (centres unmarked) [Example 15, 5-((5-(3-(4-(tert-butyl)pyrimidin-2-yl)cyclopentyl)-1H-pyrazol-3-yl)amino)-6-fluoro-2,3-dihydrobenzo[d]isothiazole 1,1-dioxide] | 1060 nM | 3.7 nM
9 | CC(C)(C)c1ccnc(C2CCC(c3cc(Nc4ccc(S(N)(=O)=O)cc4F)n[nH]3)C2)c1 (centres unmarked) [Example 1, 4-((5-(3-(4-(tert-butyl)pyridin-2-yl)cyclopentyl)-1H-pyrazol-3-yl)amino)-3-fluorobenzenesulfonamide] | > 10000 nM | 100 nM
10 | Cc1cc(C(C)(C)C)cc(C2CCC(c3cc(Nc4ccc5c(c4F)CS(=O)(=O)C5)n[nH]3)C2)n1 (centres unmarked) [Example 175, 5-((5-(3-(4-(tert-butyl)-6-methylpyridin-2-yl)cyclopentyl)-1H-pyrazol-3-yl)amino)-4-fluoro-1,3-dihydrobenzo[c]thiophene 2,2-dioxide] | > 10000 nM | 439 nM
11 | CC(C)c1cnc(C2CCC(c3cc(Nc4ccc5c(c4F)CS(=O)(=O)N5)n[nH]3)C2)o1 (single isomer, unassigned) [Example 152b, cis-4-fluoro-5-((5-(3-(5-isopropyloxazol-2-yl)cyclopentyl)-1H-pyrazol-3-yl)amino)-1,3-dihydrobenzo[c]isothiazole 2,2-dioxide] | 4580 nM | 19 nM
12 | CC(C)(C)c1ccc(C2CCC(c3cc(Nc4ccc5c(c4F)CS(=O)(=O)N5)n[nH]3)C2)o1 (centres unmarked) [Example 153, 5-((5-(3-(5-(tert-butyl)furan-2-yl)cyclopentyl)-1H-pyrazol-3-yl)amino)-4-fluoro-1,3-dihydrobenzo[c]isothiazole 2,2-dioxide] | > 10000 nM | 1020 nM
13 | CC(C)(C)c1nnc([C@H]2CC[C@H](c3cc(Nc4ccc5c(c4F)CS(=O)(=O)N5)n[nH]3)C2)o1 (relative stereo) [Example 147, trans-5-((5-(3-(5-(tert-butyl)-1,3,4-oxadiazol-2-yl)cyclopentyl)-1H-pyrazol-3-yl)amino)-4-fluoro-1,3-dihydrobenzo[c]isothiazole 2,2-dioxide] | > 10000 nM | 851 nM
14 | CC(C)(C)c1cccc(C2CCC(c3cc(Nc4ccc5c(c4F)CS(=O)(=O)N5)n[nH]3)C2)n1 (centres unmarked) [Example 158, 5-((5-(3-(6-(tert-butyl)pyridin-2-yl)cyclopentyl)-1H-pyrazol-3-yl)amino)-4-fluoro-1,3-dihydrobenzo[c]isothiazole 2,2-dioxide] | 3930 nM | 84 nM
15 | CC(C)(C)c1cnc(C2CCC(c3cc(Nc4ccc5c(c4)CN=S5(C)=O)n[nH]3)C2)o1 (single isomer, unassigned) [Example 169a, 5-((5-(3-(5-(tert-butyl)oxazol-2-yl)cyclopentyl)-1H-pyrazol-3-yl)amino)-1-methyl-3H-1λ^4-benzo[d]isothiazole 1-oxide] | 189 nM | 0.6 nM
16 | CCOC(=O)c1nc(C2CCC(c3cc(Nc4ccc5c(c4F)CNS5(=O)=O)n[nH]3)C2)oc1C(C)C (centres unmarked) [Example 115, ethyl 2-(3-(3-((4-fluoro-1,1-dioxido-2,3-dihydrobenzo[d]isothiazol-5-yl)amino)-1H-pyrazol-5-yl)cyclopentyl)-5-isopropyloxazole-4-carboxylate] | > 10000 nM | 264 nM
17 | CC(C)c1cnc(C2CCC(c3cc(Nc4ccc5c(c4F)CN=S5(C)=O)n[nH]3)C2)o1 (centres unmarked) [Example 170] | 1440 nM | 5.4 nM

Further lines, results first:

Row | IC50 (CDK1/Cyclin B1) | IC50 (CDK2/Cyclin E1) | SMILES
18 | > 10000 nM | 167 nM | CC(C)(C)c1cnnc(C2CCC(c3cc(Nc4ccc5c(c4F)CNS5(=O)=O)n[nH]3)C2)c1 (centres unmarked) [Example 131, 5-((5-(3-(5-(tert-butyl)pyridazin-3-yl)cyclopentyl)-1H-pyrazol-3-yl)amino)-4-fluoro-2,3-dihydrobenzo[d]isothiazole 1,1-dioxide]
19 | > 10000 nM | 172 nM | CC(C)c1cnc(C2CCC(c3cc(Nc4ccc5c(c4F)CNS5(=O)=O)n[nH]3)C2)o1 (single isomer, unassigned) [Example 109b, 4-fluoro-5-((5-(3-(5-isopropyloxazol-2-yl)cyclopentyl)-1H-pyrazol-3-yl)amino)-2,3-dihydrobenzo[d]isothiazole 1,1-dioxide]
20 | > 10000 nM | 1050 nM | O=S1(=O)NCc2c1ccc(Nc1cc(C3CCC(c4cnc(C5CC5)o4)C3)[nH]n1)c2F (centres unmarked) [Example 106, 5-((5-(3-(2-cyclopropyloxazol-5-yl)cyclopentyl)-1H-pyrazol-3-yl)amino)-4-fluoro-2,3-dihydrobenzo[d]isothiazole 1,1-dioxide]
21 | 8470 nM | 107 nM | Cc1ccnc(C2CCC(c3cc(Nc4ccc5c(c4F)CNS5(=O)=O)n[nH]3)C2)n1 (centres unmarked) [Example 124, 4-fluoro-5-((5-(3-(4-methylpyrimidin-2-yl)cyclopentyl)-1H-pyrazol-3-yl)amino)-2,3-dihydrobenzo[d]isothiazole 1,1-dioxide]
22 | > 10000 nM | 314 nM | CC(C)(C)c1nnc([C@@H]2CC[C@H](c3cc(Nc4ccc5c(c4F)CNS5(=O)=O)n[nH]3)C2)o1 (relative stereo) [Example 96, cis-5-((5-(3-(5-(tert-butyl)-1,3,4-oxadiazol-2-yl)cyclopentyl)-1H-pyrazol-3-yl)amino)-4-fluoro-2,3-dihydrobenzo[d]isothiazole 1,1-dioxide]
23 | > 10000 nM | 8510 nM | CC(C)(C)c1ccc([C@H]2CC[C@H](c3cc(Nc4ccc5c(c4F)CNS5(=O)=O)n[nH]3)C2)o1 (relative stereo) [Example 108, trans-5-((5-(3-(5-(tert-butyl)furan-2-yl)cyclopentyl)-1H-pyrazol-3-yl)amino)-4-fluoro-2,3-dihydrobenzo[d]isothiazole 1,1-dioxide]
24 | 7240 nM | 32 nM | CC(C)(O)c1cnc(C2CCC(c3cc(Nc4ccc5c(c4F)CNS5(=O)=O)n[nH]3)C2)o1 (centres unmarked) [Example 110, 4-fluoro-5-((5-(3-(5-(2-hydroxypropan-2-yl)oxazol-2-yl)cyclopentyl)-1H-pyrazol-3-yl)amino)-2,3-dihydrobenzo[d]isothiazole 1,1-dioxide]
25 | > 10000 nM | 1790 nM | CC(C)(C)C1CCC(C2CCC(c3cc(Nc4ccc5c(c4F)CNS5(=O)=O)n[nH]3)C2)O1 (centres unmarked) [Example 104, 5-((5-(3-(5-(tert-butyl)tetrahydrofuran-2-yl)cyclopentyl)-1H-pyrazol-3-yl)amino)-4-fluoro-2,3-dihydrobenzo[d]isothiazole 1,1-dioxide]
